# Laboratory results published in patent publication US20070116736A1, “Local vascular delivery of PI3 kinase inhibitors alone or in combination with sirolimus to prevent restinosis following vascular injury” (priority 2005, published 2007).
# pIC50: −log10 of the molar value.
# How the values were obtained:
# [1] = drug concentration in liquid formulations by liquid chromatography / HPLC assay; type: physicochemical
# [2] = system: human coronary artery smooth muscle cells; conditions: synchronized cells, two percent fetal bovine serum; for effect of addition of the agent on the percent inhibition of rapamycin: topotecan zero to three hundred nanomolar, etoposide zero to eight hundred nanomolar, Panzem zero to 100 micromolar
# [3] = system: human coronary artery smooth muscle cell; assay: MTS cytotoxicity assay; type: cell-based; conditions: concentrations up to 30,000.00 nanomolar
# Excerpt: Typically, a control is utilized to determine baseline toxicity.
# [4] = porcine drug elution PK study of dual drug eluting coating; type: in vivo; conditions: after eight (8) days of implantation, pig coronary arteries; single layer coating of FIG. 83
# Excerpt: Another critical parameter for the performance of the thrombus resistance of a device coated with cilostazol is the duration of the drug release from the coating. This is of particular significance in the two weeks after device implantation. In the porcine drug elution PK studies of the dual drug eluting coating, both cilostazol and sirolius were slowly released from the coating, resulting in a sustained drug release profile. The purpose of the porcine PK study is to assess the local pharmacokinetics of a drug eluting stent at a given implantation time. Normally three stents are implanted in three different coronary arteries in a pig for a given time point and then retrieved for total drug recovery analysis. The stents are retrieved at predetermined time points; namely, 1, 3 and 8 days. The stents are extracted and the total amount of drug remaining on the stents is determined by analysis utilizing HPLC (high performance liquid chromatography) for total drug amount. The difference between the original amount of drug on the stent and the amount of drug retrieved at a given time represents the amount of drug released in that period. The continuous release of drug into surrounding arterial tissue is what prevents the neointimal growth and restenosis in the coronary artery. A normal plot represents the percentage of total drug released (%, y-axis) vs. time of implantation (day, x-axis). […]
# [5] = in vitro release of sirolimus and cilostazol from stent coating; type: physicochemical; conditions: single layer coating of FIG. 83
# [6] = system: human smooth muscle cells; assay: Cladribine Example, PDGF-stimulated cell proliferation (cell count), smooth muscle cells; type: cell-based; conditions: from IC50 values
# Experimental: To assess the ability of cladribine to prevent cell proliferation, human smooth muscle or endothelial cells (Clonetics, Walkersville, Md.) were seeded at a density of 2000 cells/cm^2 (approximately 3600 cells/well) into each well of 12-well plates and cultured with 1.5 ml of growth medium containing five percent fetal calf serum (FCS). After twenty-four hours, the growth medium was changed and fresh medium containing 10 ng/ml platelet-derived growth factor AB (PDGF AB; LIFE Technologies), as well as various concentrations of cladribine (0.001-10,000 nM) were added with triplicate wells. Medium was replaced with fresh cladribine-containing medium after three days. On day six, cells were detached by trypsinization to yield a cell suspension, lightly centrifuged to pellet and then counted manually using a Neubauer hemocytometer system. Cell viability was assessed by trypan blue exclusion.
# [7] = system: human coronary artery smooth muscle cells; assay: anti-proliferative activity in non-synchronized cultured human coronary artery smooth muscle cells stimulated with two percent fetal bovine serum; type: cell-based; conditions: for effect of addition of the agent on the anti-proliferative activity of rapamycin: mycophenolic acid zero to one thousand nanomolar, cladribine zero to nine hundred nanomolar
# Excerpt: The multiple curves represent various concentrations of mycophenolic acid ranging from zero to one thousand nanomolar concentrations.
# The multiple curves represent various concentrations of cladribine ranging from zero to nine hundred nanomolar concentrations.
# cell viability = cell viability assay; type: cell-based
# [8] = system: human coronary artery smooth muscle cell; assay: in vitro cell culture study, coronary artery smooth muscle cell proliferation (trichostatin A); type: cell-based
# Excerpt: FIG. 51 is a graph of the inhibition of coronary artery smooth muscle cells by trichostatin A in a cell culture study.
# tumor cell lines = tumor cell lines (Woo et al. 2002); cited from earlier work
structure (smiles),measurement,setting,value
CO[C@H]1C[C@@H]2CC[C@@H](C)[C@@](O)(O2)C(=O)C(=O)N2CCCC[C@H]2C(=O)O[C@H]([C@H](C)C[C@@H]2CC[C@@H](OC(=O)C(C)(CO)CO)[C@H](OC)C2)CC(=O)[C@H](C)/C=C(\C)[C@@H](O)[C@@H](OC)C(=O)[C@H](C)C[C@H](C)/C=C/C=C/C=C/1C [CCI-779],concentration of CCI-779 in the final solution (HPLC assay),"[1]; Vitamin E TPGS, water, ethanol less than two percent",15000 µg/mL
"COc1cc2c(cc1O)CC[C@@H]1[C@@H]2CC[C@]2(C)[C@@H](O)CC[C@@H]12 [Panzem®, 2-methoxyestradiol]",inhibition of human coronary artery smooth muscle cell proliferation in vitro,[2],extremely effective inhibitor
same,effect of addition of the agent on the percent inhibition of rapamycin,[2],increases the percent of inhibition of rapamycin alone
same,human coronary artery smooth muscle cell survival (MTS assay),[3],do not reduce human coronary artery smooth muscle cell survival
"O=C1CCc2cc(OCCCCc3nnnn3C3CCCCC3)ccc2N1 [cilostazol, 6[4-(1-cyclohexyl-1H-tetrazol-5-yl)-butoxy]-3,4-dihydro-2-(1H)-quinolinone]",drug remaining in the drug coating,[4],~80%
same,in vitro release from coating,[5],~35%
"Nc1nc(Cl)nc2c1ncn2[C@H]1C[C@H](O)[C@@H](CO)O1 [cladribine, 2-chlorodeoxyadenosine]",potency as inhibitor of smooth muscle cells relative to endothelial cells,[6],approximately twice
same,inhibition of human coronary artery smooth muscle cell proliferation,[7],completely inhibits
same,effect of addition of the agent on the anti-proliferative activity of rapamycin,[7],increases the percent inhibition of rapamycin alone
COc1cc([C@@H]2c3cc4c(cc3[C@@H](O[C@@H]3O[C@@H]5CO[C@@H](C)O[C@H]5[C@H](O)[C@H]3O)[C@H]3COC(=O)[C@H]23)OCO4)cc(OC)c1O [etoposide],effect of addition of the agent on the percent inhibition of rapamycin,[2],increases the percent inhibition of rapamycin alone
same,cytotoxicity in cell viability assay,cell viability; at concentrations up to ten micromolar,non-cytotoxic
COc1c(C)c2c(c(O)c1C/C=C(\C)CCC(=O)O)C(=O)OC2 [mycophenolic acid],effect of addition of the agent on the anti-proliferative activity of rapamycin,[7],potentiates the anti-proliferative activity of rapamycin
CO[C@H]1C[C@@H]2CC[C@@H](C)[C@@](O)(O2)C(=O)C(=O)N2CCCC[C@H]2C(=O)O[C@H]([C@H](C)C[C@@H]2CC[C@@H](O)[C@H](OC)C2)CC(=O)[C@H](C)/C=C(\C)[C@@H](O)[C@@H](OC)C(=O)[C@H](C)C[C@H](C)/C=C/C=C/C=C/1C [rapamycin],concentration in formulation relative to solubility of sirolimus in water,[1]; 4 mg/ml PEG 200 formulation,four hundred to about one thousand
same,drug remaining in the drug coating,[4],~80%
CC[C@@]1(O)C(=O)OCc2c1cc1n(c2=O)Cc2cc3c(CN(C)C)c(O)ccc3nc2-1 [topotecan],effect of addition of the agent on the percent inhibition of rapamycin,[2],increases the percent inhibition of rapamycin alone
same,cytotoxicity in cell viability assay,cell viability; at concentrations up to one micromolar,non-cytotoxic
CC(/C=C/C(=O)NO)=C\[C@@H](C)C(=O)c1ccc(N(C)C)cc1 [trichostatin A],pIC50,"[8]; human coronary artery smooth muscle cell proliferation, read-out: anti-proliferative IC50",~8.22
same,inhibition of human coronary artery smooth muscle cell proliferation,[8]; in vitro cell culture,completely inhibit
same,anti-proliferative IC50,tumor cell lines,low nM range
